# From PubChem BioAssay AID504
# Molecular target: Ras-related C3 botulinum toxin substrate 3 (Homo sapiens) (UniProt P60763)
# Assay: ligand-induced RAC3 melting temperature shift – biophysical, recombinant human protein, DSF (AID 504)
# Details: recombinant RAC3, DSF thermal shift, SYPRO orange; at 10 µM; protein 2 µM; buffer 10 mM HEPES; pH 7.5; NaCl 150 mM; stronger effect = higher value
row,SMILES,Tm shift
1,N#C/C(=C1\Nc2ccccc2S1)c1ccnc(NCCc2cccnc2)n1,2.3 °C
2,N#CC(C(N)Sc1ccccc1N)C(C#N)C(N)Sc1ccccc1N (configuration not stated),2.4 °C
